Experimental data published in patent US20240114940A1, “SACCHARIDE COMPOSITIONS HAVING SUCROSE-LIKE CHARACTERISTICS AND RELATED METHODS” (priority 2021, published 2024).

Assays:
Assay type in all cases: physicochemical
[1] = Heating in a closed system (sealed microwave reactor tubes, 2 min), saccharides by ion-exchange chromatography; details: acidic conditions (pH 3 buffer), 177° C.
[2] = Heating of saccharide solutions in an open system (observation, ion-exchange chromatography)
Procedure: The following steps were performed to observe the impact of heat and pH on xylo-oligosaccharides: • 1. Four saccharide solutions comprising xylo-oligosaccharides of primarily degree of polymerization (DP) 2-6 (XOS) were created by dissolving saccharides in water, some solutions including an acidity regulator. The four solutions were: • a. XOS in water, pH 7 • b. XOS in water, pH 7 • c. XOS in water and lemon juice, pH 2 • d. XOS in water and baking soda, pH 9 • 2. The four solutions were heated, and the resulting products analyzed. For the four solutions: • a. XOS in water at pH 7 was heated to 110° C. (FIG. 1A). The solution was yellow when dissolved in water, and sticky, dissolving around 60° C. The solution formed soft, sticky threads at 110° C. […] XOS in water at pH 7 was heated to 177° C. (FIG. 1B). The solution got very dark at 177° C. and smelled burnt. The solution began darkening in color around 120° C., with the darkest color formation beginning at 150° C. The solution formed a hard crack consistency at 177° C. When water was added, the hard crack consistency re-dissolved slowly. • c. XOS in water and lemon juice at pH 2 was heated to 177° C. (FIG. 1C). This solution behaved the same as solution (b). • d. […]
The following steps were performed to observe the impact of heat and pH on cello-oligosaccharide: • 1. […] The four solutions were heated, and the resulting products analyzed. […]

[3] = pH and absorbance at 420 nm of closed-system heated solutions

sucrose degraded [1]: around 85%
degradation after heating ([2]; 177° C. at pH 7 and pH 4, open system): degrades
degradation after heating ([2]; 177° C. at pH 10, open system): does not degrade
A420 after heating to 177° C. ([3]; samples labelled as pH 3): 0.089
A420 before heating ([3]; samples labelled as pH 3): 0.082
pH after heating to 177° C. ([3]; samples labelled as pH 3): 3.08
pH before heating ([3]; samples labelled as pH 3): 3
A420 after heating to 110° C. ([3]; samples labelled as pH 7): 0.086
A420 before heating ([3]; samples labelled as pH 7): 0.115
pH after heating to 110° C. ([3]; samples labelled as pH 7): 6.88
pH after heating to 177° C. ([3]; samples labelled as pH 7): 6.84
pH before heating ([3]; samples labelled as pH 7): 6.78
A420 before heating ([3]; samples labelled as pH 9): 0.087
pH after heating 177° C. ([3]; samples labelled as pH 9): 8.14
pH before heating ([3]; samples labelled as pH 9): 8.76
SMILES: OC[C@H]1O[C@@](CO)(O[C@H]2O[C@H](CO)[C@@H](O)[C@H](O)[C@H]2O)[C@@H](O)[C@@H]1O [Sucrose]
